Measurements as given in ChEMBL document CHEMBL2448809, “UCSF DeRisi Lab MMV Box Apicoplast Screening”.

tested on: Plasmodium falciparum; experiment: MMV: Compounds (1uM) were screened in a 72hr growth assay monitored by flow cytometry both in the presence and absence of supplemental isopentenyl pyrophosphate (IPP) 200uM. Compounds which fail to show anti-malarial activity when chemically rescued by IPP are therefore specific to the apicoplast. The values are expressed as the ratio of the corresponding activity with and without IPP, respectively.; format: functional, W2

Structure (SMILES) | Ratio
CN1CCN(c2ccc(Nc3c4ccccc4nc4ccccc34)cc2)CC1 | 0.8
CN(C)CCCNc1c2ccccc2nc2ccccc12 | 0.7564
CCN1CCCC1CNc1[nH]cnc2c3cc(Cl)ccc3nc1-2 (configuration not stated) | 0.925
COc1ccc(-c2c(C)nn3c(N)c(C#N)cnc23)cc1OC | 0.831
CSC1=NC(=Nc2c(C)cccc2C)C2(CCC(C(C)(C)C)CC2)N1c1ccc(Cl)cc1 (configuration not stated) | 0.8243
C[n+]1c2ccccc2nc2ccc(NCCO)cc21 | 0.9178
Cc1cc(C)cc(Nc2cc(C)nc3nc(C(F)(F)F)nn23)c1 | 0.8519
O=C(NCC(c1ccsc1)N1CCCCCC1)c1ccc(C(F)(F)F)cc1 (configuration not stated) | 0.9077
COc1ccc(-c2cc3c(SCC(=O)Nc4cc(C(F)(F)F)ccc4Cl)nccn3n2)cc1 | 0.9714
Cc1ccc(-c2cc3c(SCC(=O)Nc4cc(C(F)(F)F)ccc4Cl)nccn3n2)cc1 | 0.9375
CCN(CC)CCNc1ncnc2c1[nH]c1ccc(Cl)cc12 | 0.6923
CCOC(=O)c1cnc2ccc(CC)cc2c1O | 1
Cc1ccc(-c2cc3c(nn2)-c2ccccc2C3=O)cc1 | 0.7253
CCN(CC)CCNc1ccnc2cc(Cl)ccc12 | 0.8734
Cc1ccc(Nc2nc(-c3ccccn3)cs2)cc1 | 0.7264
CCCCCC(=O)N1c2ccccc2N=C2CC(c3ccc(OC)c(OC)c3)CC(O)=C2C1c1ccc(C(F)(F)F)cc1 (configuration not stated) | 0.7792
Cc1cc(Nc2ccc3ccccc3c2)n2ncnc2n1 | 0.8919
Cc1cc(NCCN2CCCCC2)c2ccc3ccccc3c2n1 | 0.8873
COc1ccc(-n2ccnc2SCC(=O)Nc2cc(C)ccc2C)c(OC)c1 | 0.75
CCN1CCN(Cc2ccc(NC(=O)c3cc4ccc5cccnc5c4[nH]3)cc2)CC1 | 1.563
COc1ccc(-c2nc(NC(=O)CS(=O)(=O)c3ccc(F)cc3)sc2C)cc1 | 0.8289
O=C(NCc1ccco1)C1CCN(S(=O)(=O)c2ccc(Cl)cc2)CC1 | 0.8889

Structure (SMILES) | Ratio
O=C(O)C1Cc2c([nH]c3ccccc23)C(c2ccc(Cl)cc2Cl)N1 (configuration not stated) | 6.316
c1ccc(-c2ccc(-c3nc4ccccc4[nH]3)cc2)cc1 | 1.5
CCC(C)NCC(O)(c1ccc(Cl)cc1)c1ccc(Cl)cc1 (configuration not stated) | 1.02
Cc1ccc(N2C(=O)C3C(C2=O)C2(c4ccccc4)C(=O)C3(c3ccccc3)C(c3ccccc3)=C2c2ccccc2)cc1 (configuration not stated) | 1.121
CCc1c(C)c(=N)c2ccccc2n1C.I | 1.064
COc1cccc(NC(=O)[C@H](C(C)C)n2c(=O)[nH]c3ccccc3c2=O)c1 | 0.7619
CCOC(=O)c1cn(CC)c2cc(N(C)CCc3ccc(OC)c(OC)c3)c(F)cc2c1=O | 0.75
CCC(c1ccccc1)c1nn2c(-c3cccs3)nnc2s1 (configuration not stated) | 0.775
CC(C)(C)c1ccc(O)c(CNC2CCCCC2)c1 | 0.8356
O=[N+]([O-])c1ccc(C=NNc2nc3ccccc3[nH]2)cc1 | 1.132
CCOc1cc2c(cc1OCC)C(c1cc(OC)c(O)cc1Cl)NCC2 (configuration not stated) | 0.9254
CC1CN(C(=O)c2sc3ccccc3c2Cl)CC(C)O1 (configuration not stated) | 0.8415
COCCNC(=O)c1ccc(OC2CCN(Cc3ccc(F)c(F)c3)CC2)c(Cl)c1 | 1.063
CN(C)c1ccc(C=Cc2nc(=O)c3ccccc3o2)cc1 | 0.8302
COc1ccc(C2=C(c3ccc(OC)cc3)C3(c4ccccc4)C(=O)C2(c2ccccc2)C2C(=O)N(c4ccc(C)cc4)C(=O)C23)cc1 (configuration not stated) | 1.0625
CCOC(=O)c1c(NC(=O)c2ccccc2)sc2c(O)c(CN(CC)CC)ccc12 | 0.8592
CCOC(=O)C1=C(c2ccccc2)N=c2sc(=Cc3cc(C)n(-c4ccc(F)cc4)c3C)c(=O)n2C1c1cccc(OC)c1OC (configuration not stated) | 0.7267
CCC1(C)CC(CCNCc2ccccc2O)(c2ccc(C)cc2)CCO1 (configuration not stated) | 0.8378
O=C(CCc1ccco1)NC1CCN(CC2(c3ccc(Cl)cc3)CCC2)CC1 | 0.875
OC(CNC1CCCCC1)Cn1c2ccccc2c2ccccc21 (configuration not stated) | 1.115
Cc1cc(Nc2ccc(C)c(Cl)c2)n2nc(C(F)(F)F)nc2n1 | 0.6628
COc1cccc(C=Cc2nc(=O)c3ccccc3o2)c1OC | 0.4632

Structure (SMILES) | Ratio
CCCN(CCC)CC(O)COc1ccccc1C(=O)Nc1ccccc1 (configuration not stated) | 0.8553
Fc1ccc2[nH]c3c(NCCCN4CCOCC4)ncnc3c2c1 | 0.8594
COc1ccc(C(=O)Nc2nonc2-c2ccc(OC)c(OC)c2)cc1Cl | 0.8261
COCCN(C(=O)Cc1cccs1)C(C(=O)NCc1ccc(OC)cc1)c1ccc(C(C)C)cc1 (configuration not stated) | 0.8315
COc1ccc(C=C2SC(=N)N(c3ccccc3OC)C2=O)cc1 | 0.8861
COc1ccc(NC(=O)C2c3ccccc3C(=O)N(CC(C)C)C2c2cccs2)cc1Cl (configuration not stated) | 0.9242
CCOC(=O)c1c(C)n(-c2ccc(Cl)cc2)c2ccc(OC(=O)C=Cc3ccccc3)cc12 | 1.121
COc1ccc2c(c1)OC(O)(C(F)(F)C(F)(F)F)CC2=O (configuration not stated) | 0.9
FC(F)(F)c1cccc(CNC2CCN(CCc3ccccc3)CC2)c1 | 0.9344
Oc1ccc(Cl)cc1CNc1nc2ccccc2[nH]1 | 1.068
CCOc1cc(Cl)c(C(C)NC(=O)c2ccccc2)cc1OCC (configuration not stated) | 0.9848
C=CC12CCN(CC1)C(C(O)c1ccnc3ccc(OC)cc13)C2.Cl (configuration not stated) | 0.6933
Cc1ccc(-c2cc3nc4c(c(O)n3n2)CCCC4)cc1 | 0.9459
O=C(c1ccccc1F)N(Cc1ccc(Cl)cc1)c1ccccn1 | 0.7857
Cc1cccc(Nc2nc(N)c3ccccc3n2)c1.Cl | 0.9275
COc1ccc(C(=O)Nc2ccc(Cl)cc2C(=O)Nc2ccncc2)cc1 | 0.8104
CCn1c(CN2CCN(Cc3ccccc3)CC2)nc2cc(NC(=O)c3cccs3)ccc21 | 0.8481
COc1ccccc1CNC(=O)CCn1c(=O)[nH]c2ccccc2c1=O | 1.153
O=C(Nc1ccc(Cl)cc1)N1CCN(c2ccc3nncn3n2)CC1 | 0.8112
c1ccc2cc3c(Nc4ccc(N5CCOCC5)cc4)ccnc3cc2c1 | 0.7931
O=C(CSc1ccc2nnc(-c3cccc(F)c3)n2n1)Nc1ccc2c(c1)OCO2 | 0.7344
CCCCNCC(O)(c1ccc(Cl)cc1)c1ccc(Cl)cc1 | 1.074

Structure (SMILES) | Ratio
Cc1cc(C)c2c(c1)OCN(Cc1ccccc1Cl)C2 | 0.8871
COc1cc(OC)c(N(C)C(=O)c2cc3c(s2)-c2ccccc2S(=O)(=O)C3)cc1Cl | 1
COc1ccccc1NC1=C(N2CCCCC2)C(=O)c2ccccc2C1=O | 0.9344
CCOC(=O)c1cn(CC)c2cc(N3CCCCC3)c(F)cc2c1=O | 0.6824
CCCc1cc(O)c2c3c(c(=O)oc2c1)CN(C)CC3 | 0.8028
Cc1cc(NC(=O)C2c3ccccc3C(=O)N(CC(C)C)C2c2cccs2)no1 (configuration not stated) | 0.791
Cl.Oc1ccccc1CNCC12CC3CC(CC(C3)C1)C2 | 0.8
CNCCCNc1ccnc2cc(Cl)ccc12 | 0.8333
COc1ccccc1CNC(=O)CCn1c(=O)[nH]c2ccsc2c1=O | 1.123
COc1ccc(Br)cc1C1Nc2ccc3ccccc3c2C2=C1C(=O)CC(c1ccccc1)C2 (configuration not stated) | 0.8077
Cc1cc(C=C2SC(=Nc3ccccc3)N(C3CCCC3)C2=O)c(C)n1-c1ccc(Cl)cc1 | 1.038
CCn1c(SCC(=O)Nc2cc(C(F)(F)F)ccc2Cl)nc2ccccc2c1=O | 1
Cc1ccc(Cn2c(N3CCC(C(=O)NCc4cccs4)CC3)nc3ccccc32)cc1 | 1.032
CC1CCN(Cc2ccc(NC(=O)c3cc4ccc5cccnc5c4[nH]3)cc2)CC1 | 1
O=C(Nc1ccc(Cl)cc1C(=O)Nc1ccncc1)c1ccc(Cl)cc1Cl | 0.7485
CCOc1cccc2sc(N(Cc3cccnc3)C(=O)C3CCCCC3)nc12 | 0.8788
CCOc1ccc(-c2nonc2NC(=O)c2cccc(C)c2)cc1OCC | 0.6977
CCc1ccc(Nc2cc(C)c3ccc(O)cc3n2)cc1.Cl | 0.7867
COc1ccc2c(=O)cc(C(Cl)(Cl)Cl)oc2c1 | 0.7571
CC(C)(C)CC(C)(C)NCC(O)COc1ccc2c(c1)CCC2.Cl (configuration not stated) | 1.052
CCOc1ccc(/C=C/c2nc(=O)c3ccccc3o2)cc1 | 0.7714
O=C(Nc1ccccc1O)c1ccc(-c2ccc(Cl)cc2Cl)o1 | 0.8413

Structure (SMILES) | Ratio
O=C(Nc1nc(-c2ccccn2)cs1)c1ccccc1Br | 0.987
CSc1ccccc1C(=O)Nc1nc(-c2ccccn2)cs1 | 0.8125
CC(O)(c1ccc(Cl)cc1)C(CN1CCCCC1)c1ccccc1.Cl (configuration not stated) | 0.9286
CCCCc1ccc(NS(=O)(=O)c2cc3c4c(c2)CCN4C(=O)CC3)cc1 | 0.6295
CCOc1ccccc1CNC(=O)C1c2ccccc2C(=O)N(CC(C)C)C1c1cccs1 (configuration not stated) | 1.143
COc1ccc(-c2nc3cc(Cc4ccc5[nH]c(-c6ccc(OC)cc6)nc5c4)ccc3[nH]2)cc1 | 1.389
CCOC(=O)c1ccc2nc(-c3ccccc3)cc(O)c2c1 | 0.3465
Cc1cc(Nc2ccc(Cl)cc2)n2nc(C(F)(F)F)nc2n1 | 0.9718
COc1ccc(C(C)=O)cc1N1C(=O)C2C(C1=O)C1(c3ccccc3)C(=O)C2(c2ccccc2)C(c2ccc(C)cc2)=C1c1ccc(C)cc1 (configuration not stated) | 0.8421
CCCCCCOC(=O)C1=C(C)NC(=O)NC1c1ccccc1F (configuration not stated) | 0.6566
COc1ccc(C2Sc3ccccc3N=C3C2=C(O)c2ccccc23)cc1 (configuration not stated) | 1.228
Cc1ccc(N2C3c4ccccc4N(S(=O)(=O)c4ccc(C)cc4)C2c2ccccc2N3S(=O)(=O)c2ccc(C)cc2)cc1 | 0.3473
CCCc1c(CC)c(=N)c2ccccc2n1C | 1.043
CCN(CC)CCCNc1nc(-c2ccc(Cl)cc2)nc2ccccc12 | 1.055
Cc1ccc(Nc2nc(NCCO)c3ccccc3n2)cc1C | 0.8028
CC1CCCCN1CCCNC(=O)c1ccc2c(c1)sc1nc(-c3ccc(F)cc3)cn12 (configuration not stated) | 1.167
CCOC(=O)c1cnc2c(C)cc(C)cc2c1Nc1ccc(OC)c(OC)c1 | 1.122
COc1ccc(NC(=O)C2c3ccccc3C(=O)N(CC(C)C)C2c2cccs2)cc1 (configuration not stated) | 1.197
c1ccc(Cn2c(N=Nc3c(Nc4ccccc4)ccc4ccccc34)nc3ccccc32)cc1 | 0.863
